Data from PMC12501849, “Design, synthesis and evaluation of arylpurine-based sinefungin mimetics as zika virus methyltransferase inhibitors” (RSC Advances, 2025).
“Also recorded” adds a separate entry of the source.

How the values were obtained:
ZIKV MTase [1] = biological target: T1, ZIKV MTase (Zika virus, UniProt A0A024B7W1); assay: Filter binding assay (FBA), ZIKV 2′-O-MTase activity; format: biochemical; conditions: for inhibition at 50 µM: 2′-O-MTase activity, compound at 50 μM, read-out: Percentage of inhibition of ZIKV MTase
T1 construct: the ZIKV NS5 MTase (aa 4-278) domain were synthesized (Genscript); His6 (N); made in house; host or cells: Escherichia coli T7 Express Iq
Procedure: (§1) The synthesized arylpurines were evaluated for their inhibitory activity against the 2′-O-MTase activity of ZIKV and DENV3 MTases by quantification of [^3H]-methyl transfer from the [^3H]-SAM on short synthetic capped RNA (GpppAC4), by using a filter binding assay (FBA).[13,33] The universal methyltransferase inhibitor sinefungin was included as a positive control (Table 1), whose IC50 value against ZIKV MTase has already been reported using a similar assay.[13] We assessed MTase inhibition by testing the synthesized compounds at a concentration of 50 μM.
(§2) Proteins were produced and purified as previously described.[13] Briefly, the coding sequence of ZIKV NS5 (aa 4-903) and the ZIKV NS5 MTase (aa 4-278) domain were synthesized (Genscript) based on the sequence of the ZIKV strain H/PF/2013 (GenBank accession no. KJ776791.2) and then cloned into a pQE30 (Qiagen) plasmid with an N-terminal His6 tag. The MTase domains (aa 4-278 and aa 1-264) were produced in Escherichia coli T7 Express Iq (New England BioLabs). Cells were grown in Terrific Broth at 37 °C until the optical density at 600 nm (OD600) reached 0.6. Protein expression was then induced by 0.5 mM IPTG (isopropyl-β-D-thiogalactopyranoside) at 17 °C overnight. Bacteria were harvested by centrifugation. The bacterial pellets from a 2-liter bacterial culture were resuspended in 100 ml lysis buffer (50 mM Tris–HCl [pH 8], 300 mM NaCl, 5% glycerol, 0.1% Triton, 10 μg per ml DNase I, 2 tablets of EDTA-free antiprotease cocktail [Roche], 0.25 mg per ml lysozyme). After 30 min of incubation at 4 °C, cells were sonicated and clarified by centrifugation prior to immobilized metal affinity chromatography (IMAC) purification on a 5-mL His prep column (GE Healthcare), with elution in 50 mM Tris–HCl, 300 mM NaCl, and 250 mM imidazole (pH 8.0). The eluted protein was then loaded on a 16/60 Superdex 200 (GE Healthcare) equilibrated in a mixture of 10 mM HEPES, 500 mM NaCl, glycerol 5%, and 1 mM dithiothreitol (DTT [pH 7.5]).
(§3) The FBA MTase assay was carried out in a reaction mixture [40 mM Tris–HCl (pH 8.0), 1 mM DTT, 1.9 μM SAM, and 0.1 μM ^3H-SAM (PerkinElmer)] in the presence of 0.7 μM GpppAC4 synthetic RNA and the MTase (500 nM), according to the method previously described.[39] Briefly, the MTase was first mixed with the compound suspended in DMSO (5% final DMSO) before the addition of RNA substrate and SAM and then incubated at 30 °C. Reactions mixtures were stopped after 30 min by their 10-fold dilution in ice-cold water. Samples were transferred to diethylaminoethyl (DEAE) filtermat (PerkinElmer) using a Filtermat Harvester (Packard Instruments). The RNA-retaining mats were washed twice with 10 mM ammonium formate pH 8.0, twice with water and once with ethanol. They were soaked with scintillation fluid (PerkinElmer), and ^3H-methyl transfer to the RNA substrates was determined using a Wallac MicroBeta TriLux liquid scintillation counter (PerkinElmer).

DENV3 MTase [2] = biological target: T2, DENV3 MTase (Dengue virus type 3, UniProt P27915); assay: Filter binding assay (FBA), DENV3 2′-O-MTase activity; format: biochemical; conditions: for inhibition at 50 µM: 2′-O-MTase activity, compound at 50 μM, read-out: Percentage of inhibition of DENV3 MTase
T2 construct: the MTase activity is located at the N-terminal of the viral NS5 protein; made in house
Procedure: as §1, §2, §3

ZIKV = assay: Antiviral assay against ZIKV in VeroE6 cells (CPE, MTS readout); format: cell-based, zika virus; conditions: for EC50: concentration that protects 50% of the cells from virus-induced cytopathic effect
Procedure: (§4) These compounds were next evaluated for their antiviral effect on ZIKV replication in Vero E6 and SH-SY5Y cells. 7-Deaza-2′-C-methyladenosine (7DMA), a viral polymerase inhibitor,[35] was included as a positive control.
(§5) Assessment of the antiviral activity against ZIKV in VeroE6 cells (African green monkey kidney cells; Vero 76, clone E6; ATCC: Cat# CRL-1586) was done as previously described.[35] The antiviral assays in the neuroblastoma SH-SY5Y cells (CRL-2266; ATCC) were conducted as follows: SH-SY5Y cells were seeded in assay medium (MEM supplemented with 2% fetal bovine serum, 2 mM L-glutamine and 0.075% sodium bicarbonate; all from Thermo Fisher Scientific) at a density of 15 000 cells/well in 96-well plates. Cells were incubated overnight at 37 °C and 5% CO2. The next day, a serial dilution of the compounds was added to the cells, followed by inoculation of the cells with ZIKV MR766 (MOI = 0.01). Following a 7-day incubation at 37 °C and 5% CO2, ZIKV-induced cytopathic effect was determined by means of the MTS readout method, analogous to the assay with the VeroE6 cells.[35] The 50% effective concentration (the compound concentration that is required to inhibit virus-induced CPE by 50%; EC50) and the 50% cytotoxic concentration (i.e. the compound concentration that is required to inhibit the cell growth by 50%; CC50) was determined using logarithmic interpolation.

[3] = Cytotoxicity in non-infected VeroE6 cells; format: cell-based, African green monkey; conditions: African green monkey, non-infected, 50% cytotoxic concentration
Procedure: as §5

VeroE6 cells = assay: Cytotoxicity in non-infected VeroE6 cells; format: cell-based, African green monkey
Procedure: as §5

ZIKV MR766 = assay: Antiviral assay against ZIKV in SH-SY5Y cells (CPE, MTS readout); format: cell-based, zika virus
Procedure: as §4
Besides the standard assays in VeroE6 cells, the compounds were also tested in SH-SY5Y cells. […] Thus, they function as a relevant neuronal cell-based model of ZIKV infection.[38]
as §5

[4] = Cytotoxicity in non-infected SH-SY5Y cells; format: cell-based; conditions: human, SH-SY5Y neuroblastoma cells, 50% cytotoxic concentration
Procedure: as §5

ZIKV MTase [5] = biological target: T1, ZIKV MTase; design: method as in PMID 28031359; conditions: cited from earlier work
DENV3 MTase [6] = biological target: T2, DENV3 MTase; design: method as in PMID 28031359; conditions: cited from earlier work
[7] = design: method as in PMID 30170321; conditions: cited from earlier work

T2 sequence (P27915 2492-2753): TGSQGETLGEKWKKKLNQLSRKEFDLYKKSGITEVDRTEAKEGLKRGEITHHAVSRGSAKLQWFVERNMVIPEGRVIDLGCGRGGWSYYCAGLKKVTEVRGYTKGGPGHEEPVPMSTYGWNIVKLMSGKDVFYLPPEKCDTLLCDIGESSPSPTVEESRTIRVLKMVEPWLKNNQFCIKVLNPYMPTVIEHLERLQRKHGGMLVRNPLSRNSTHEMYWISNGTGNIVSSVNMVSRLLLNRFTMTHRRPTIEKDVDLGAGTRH
T1 sequence (A0A024B7W1 2524-2798): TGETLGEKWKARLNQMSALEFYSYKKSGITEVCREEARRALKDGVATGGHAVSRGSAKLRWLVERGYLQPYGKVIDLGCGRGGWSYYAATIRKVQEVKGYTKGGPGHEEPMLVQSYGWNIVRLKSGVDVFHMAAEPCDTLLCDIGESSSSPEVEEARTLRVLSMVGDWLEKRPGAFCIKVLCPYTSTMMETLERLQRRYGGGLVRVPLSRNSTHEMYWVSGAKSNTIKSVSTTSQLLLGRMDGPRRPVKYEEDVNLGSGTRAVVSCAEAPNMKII

Compound: Cc1ncnc2c1ccn2-c1cccc(N(CC[C@H](N)C(N)=O)CCC(C)(C)C)c1 [Compound 18, (S)-2-Amino-4-((3,3-dimethylbutyl)(3-(4-methyl-7H-pyrrolo[2,3-d]pyrimidin-7-yl)phenyl)amino) butanamide]
- inhibition at 50 µM (ZIKV MTase [1]): 10.8%
- Effect on 2′-O-MTase activity of ZIKV (in words) (ZIKV MTase [1]; tested at 50 μM): inhibited; also recorded: modest inhibition
- inhibition at 50 µM (DENV3 MTase [2]): 10.1%
- Effect on 2′-O-MTase activity of DENV3 (in words) (DENV3 MTase [2]; tested at 50 μM): modest inhibition
- EC50 (ZIKV; VeroE6 cells): 27.2 ± 0.2 µM
- EC50 (ZIKV; Zika virus, Vero C1008, VeroE6 cells): 27 µM
- IC50 (ZIKV; Zika virus, Vero C1008, Vero E6 cells, read-out: IC50 (antiviral activity in cell culture)): 27.2 ± 0.2 µM
- Antiviral activity against ZIKV (in words) (ZIKV; cell-based assay): modest antiviral activity
- CC50 [3]: 66.2 ± 3.9 µM
- CC50 relative to EC50 (fold higher) (VeroE6 cells): ~3 fold
- EC50 (ZIKV MR766; Zika virus, 168 h, SH-SY5Y cells, ZIKV MR766, MOI 0.01, 7-day incubation): > 100 µM
- Antiviral activity against ZIKV in SH-SY5Y cells (in words) (ZIKV MR766; neuroblastoma SH-SY5Y cells): not confirmed
- CC50 at 7 days [4]: 61 µM

Compound: Nc1ncnc2c1ncn2[C@@H]1O[C@H](C[C@@H](N)CC[C@H](N)C(=O)O)[C@@H](O)[C@H]1O [Sinefungin]
- inhibition at 50 µM (ZIKV MTase [1]): 97.9%
- inhibition at 50 µM (DENV3 MTase [2]): 96.8%
- ZIKV MTase inhibition (in words) (ZIKV MTase [5]): potent
- DENV MTase inhibition (in words) (DENV3 MTase [6]): potent
- Antiviral activity in cell culture (in words) [7]: lack of antiviral activity
